{"source": "paper PMC12308805", "about": "“Ultrahigh-Throughput Virtual Screening Strategies against PPI Targets: A Case Study of STAT Inhibitors” (Journal of Chemical Information and Modeling, 2025)", "origin": "cited, not measured here"}
{"test_system": "STAT3", "settings": "sheet 6QHD_actives_decoys, retrospective screening set for STAT3 SH2 domain (PDB 6QHD); decoys are presumed inactives, not tested; ref DUD-E; cited from earlier work"}
{"compound": "CC(=O)OC[C@@H]1O[C@@H](Oc2cc(O)cc(O)c2C(=O)CCc2ccc([N+](=O)[O-])cc2)[C@@H](OC(C)=O)[C@H](OC(C)=O)[C@H]1OC(C)=O", "note": "[Decoy880]", "Type": "Inactive (Decoy)"}
{"compound": "CC(=O)OC[C@H]1O[C@@H](Oc2cc(O)cc(O)c2C(=O)CCc2ccc([N+](=O)[O-])cc2)[C@@H](OC(C)=O)[C@H](OC(C)=O)[C@H]1OC(C)=O", "note": "[Decoy881]", "Type": "Inactive (Decoy)"}
{"compound": "O=C(O)CN(CC(=O)O)C[C@@H](Cc1ccc(NCCCCCN2C(=O)C=CC2=O)cc1)N(CC(=O)O)CC(=O)O", "note": "[Decoy882]", "Type": "Inactive (Decoy)"}
{"compound": "CO[C@@H]1[C@@H](OC(N)=O)[C@H](O)[C@@H](Oc2ccc3c(O)c(NC(=O)c4ccc(O)c(CC=C(C)C)c4)c(=O)oc3c2C)OC1(C)C", "note": "[Decoy883]", "Type": "Inactive (Decoy)"}
{"compound": "COc1cc(NC(=S)Nc2ccc(S(=O)(=O)/N=c3/cc(OC)nc(OC)[nH]3)cc2)cc(OC)c1", "note": "[Decoy884]", "Type": "Inactive (Decoy)"}
{"compound": "CC(=O)O[C@@H]1[C@@H](O)[C@@H](O[C@@H](C/N=C/c2c(O)ccc3ccccc23)[C@@H](CO)O[C@H](O)C/N=C/c2c(O)ccc3ccccc23)O[C@@H](CO)[C@H]1O", "note": "[Decoy885]", "Type": "Inactive (Decoy)"}
{"compound": "O=C(OC[C@@H]1O[C@H](Oc2ccc(O)cc2COC(=O)[C@@]2(O)[C@@H](O)CCC(=O)[C@@H]2O)[C@H](OC(=O)[C@H]2C=CCC2)[C@H](O)[C@@H]1O)[C@H]1C=CCC1", "note": "[Decoy886]", "Type": "Inactive (Decoy)"}
{"compound": "COc1cc(/C(C)=N/NC(=O)c2nnn(-c3nonc3N)c2COc2ccc(F)cc2)ccc1OCc1ccc(Cl)cc1", "note": "[Decoy887]", "Type": "Inactive (Decoy)"}
{"compound": "COc1ccc(C(OC[C@H]2O[C@H](Oc3ccc([N+](=O)[O-])cc3)[C@@H](O)[C@@H](O)[C@@H]2O)(c2ccccc2)c2ccc(OC)cc2)cc1", "note": "[Decoy888]", "Type": "Inactive (Decoy)"}
{"compound": "C[n+]1c(N[N-]S(=O)(=O)c2cccc(C(=O)NC(C)(C)CC(C)(C)CC(C)(C)C)c2)sc2ccc(S(=O)(=O)C(F)F)cc21", "note": "[Decoy889]", "Type": "Inactive (Decoy)"}
{"compound": "CCN(CC)S(=O)(=O)c1ccc(NC(=O)CSc2n[nH]c(N/N=C/c3ccccc3F)n2)cc1", "note": "[Decoy890]", "Type": "Inactive (Decoy)"}
{"compound": "O=C(O)CCNS(=O)(=O)c1ccc(NCCc2ccc(C(F)(F)F)cc2)c([N+](=O)[O-])c1", "note": "[Decoy891]", "Type": "Inactive (Decoy)"}
{"compound": "O=C(O)C[C@H](NS(=O)(=O)c1cc(S(=O)(=O)N[C@H](CC(=O)O)c2ccccc2)c2cccc3c2c1NC3=O)c1ccccc1", "note": "[Decoy892]", "Type": "Inactive (Decoy)"}
{"compound": "O=C(O)C[C@H](NS(=O)(=O)c1cc(S(=O)(=O)N[C@@H](CC(=O)O)c2ccccc2)c2cccc3c2c1NC3=O)c1ccccc1", "note": "[Decoy893]", "Type": "Inactive (Decoy)"}
{"compound": "CN(CCO)c1ccc(/C=N\\Nc2ccc(S(=O)(=O)Nc3ccccc3C(=O)O)cc2[N+](=O)[O-])cc1", "note": "[Decoy894]", "Type": "Inactive (Decoy)"}
{"compound": "CC(=O)[C@@H]1CC[C@H]2[C@H]3CC=C4C[C@@H](O[C@@H]5O[C@H](CO)[C@@H](O)[C@H](O)[C@H]5O[C@@H]5O[C@H](CO)[C@@H](O)[C@H](O)[C@H]5O)CC[C@]4(C)[C@@H]3CC[C@]12C", "note": "[Decoy895]", "Type": "Inactive (Decoy)"}
{"compound": "O=C1N=C([C@]2(C3=Nc4nnc(/N=C(\\O)Nc5ccc(Cl)cc5)n4C3=O)Cc3ccccc3C2=O)n2c(/N=C(\\O)Nc3ccc(Cl)cc3)nnc21", "note": "[Decoy896]", "Type": "Inactive (Decoy)"}
{"compound": "CCCOc1ccc([C@@H]2c3c(n[nH]c3-c3cc(C)cc(C)c3O)C(=O)N2CCCOC(C)C)cc1OCC", "note": "[Decoy897]", "Type": "Inactive (Decoy)"}
{"compound": "COc1ccc(CCN/C(=N/c2nc(C)cc(C)n2)NS(=O)(=O)c2ccc(Br)cc2)cc1OC", "note": "[Decoy898]", "Type": "Inactive (Decoy)"}
{"compound": "COc1ccc(CCNc2ccc3nnc(CCNS(=O)(=O)c4ccccc4OC)n3n2)cc1OC", "note": "[Decoy899]", "Type": "Inactive (Decoy)"}
{"compound": "COc1ccccc1OCCNC[C@H](O)COc1cccc2c1c1ccccc1n2C[C@H](O)COc1cccc2[nH]c3ccccc3c12", "note": "[Decoy900]", "Type": "Inactive (Decoy)"}
{"compound": "Cc1cc(C)nc(N/C(=N/C(=O)Nc2cccc(Cl)c2)NCCSCc2[nH]cnc2C)n1", "note": "[Decoy901]", "Type": "Inactive (Decoy)"}
{"compound": "CCc1ccc2c(c1)[C@@]1(N[C@@H](Cc3ccc(O)c(O)c3)[C@H]3C(=O)N(CCc4ccc(OC)c(OC)c4)C(=O)[C@H]31)C(=O)N2", "note": "[Decoy902]", "Type": "Inactive (Decoy)"}
{"compound": "COc1cc(-c2ccc(NC(=O)c3ccc(OC)c(OC)c3)c(OC)c2)ccc1NC(=O)c1ccc(OC)c(OC)c1", "note": "[Decoy903]", "Type": "Inactive (Decoy)"}
{"compound": "Cc1noc(C)c1CSc1ncccc1C(=O)O[C@H](C)C(=O)Nc1sccc1C(N)=O", "note": "[Decoy904]", "Type": "Inactive (Decoy)"}
{"compound": "CC(C)(CC[C@@H](O)[C@@](C)(O)[C@H]1CC[C@@]2(O)C3=CC(=O)[C@H]4C[C@@H](O)[C@@H](O)C[C@]4(C)[C@@H]3CC[C@]12C)O[C@H]1O[C@@H](CO)[C@@H](O)[C@@H](O)[C@H]1O", "note": "[Decoy905]", "Type": "Inactive (Decoy)"}
{"compound": "CCN(CC)c1ccc(NC(=O)CSc2n[nH]c(N/N=C/c3cc(OC)c(O)cc3[N+](=O)[O-])n2)cc1", "note": "[Decoy906]", "Type": "Inactive (Decoy)"}
{"compound": "CCN(CC)C(=O)c1c[nH]c2ccc(S(=O)(=O)Nc3ccc4c(c3)OCCO4)cc2c1=O", "note": "[Decoy907]", "Type": "Inactive (Decoy)"}
{"compound": "CC(=O)O[C@@H]1[C@@H](O)[C@H](CO)O[C@H](O[C@@H](/C=N/c2cnc([N+](=O)[O-])s2)[C@@H](CO)O[C@H](O)/C=N/c2cnc([N+](=O)[O-])s2)[C@@H]1O", "note": "[Decoy908]", "Type": "Inactive (Decoy)"}
{"compound": "CC(=O)O[C@H]1[C@@H](O)[C@@H](O[C@@H](/C=N\\c2cnc([N+](=O)[O-])s2)[C@@H](CO)O[C@H](O)/C=N/c2cnc([N+](=O)[O-])s2)O[C@@H](CO)[C@H]1O", "note": "[Decoy909]", "Type": "Inactive (Decoy)"}
{"compound": "COc1cc([C@H]2OC[C@H]3[C@@H]2CO[C@H]3c2ccc(O[C@@H]3O[C@H](CO[C@@H]4O[C@@H](C)[C@H](O)[C@@H](O)[C@H]4O)[C@@H](O)[C@H](O)[C@H]3O)c(OC)c2)ccc1O", "note": "[Decoy911]", "Type": "Inactive (Decoy)"}
{"compound": "O=C(CNS(=O)(=O)c1ccc(NC(=S)Nc2ccc([N+](=O)[O-])cc2)cc1)c1ccccc1", "note": "[Decoy913]", "Type": "Inactive (Decoy)"}
{"compound": "COC(=O)c1sc(NC(=O)CCCS(=O)(=O)c2nc(-c3ccc(OC)c(OC)c3)cc(C(F)(F)F)n2)c(C(N)=O)c1C", "note": "[Decoy915]", "Type": "Inactive (Decoy)"}
{"compound": "CCOC(=O)c1sc(NC(=O)CSc2n[nH]c(N/N=C/c3ccc(C)cc3)n2)c(C#N)c1C", "note": "[Decoy916]", "Type": "Inactive (Decoy)"}
{"compound": "CCC(CC)C(=O)Nc1cccc(C(=O)Nc2ccc(S(=O)(=O)Nc3nccc(C)n3)cc2)c1", "note": "[Decoy917]", "Type": "Inactive (Decoy)"}
{"compound": "Cc1ccc(S(=O)(=O)Nc2ccc(N3CCN(CC(=O)NCC(C)C)CC3)cc2C(=O)O)cc1", "note": "[Decoy918]", "Type": "Inactive (Decoy)"}
{"compound": "CCn1cc([C@@H](C)NC(=S)Nc2ccc(S(=O)(=O)Nc3ncccn3)cc2)c(C)n1", "note": "[Decoy919]", "Type": "Inactive (Decoy)"}
{"compound": "C=CCOC(=O)c1sc(NC(=O)[C@@H](CC)n2c(N)nnc2SCc2ccccc2Cl)nc1C", "note": "[Decoy920]", "Type": "Inactive (Decoy)"}
{"compound": "COc1ccc(CNc2nc(NCc3ccc(OC)c(OC)c3)n(C(=O)c3ccc(C(C)(C)C)cc3)n2)cc1OC", "note": "[Decoy921]", "Type": "Inactive (Decoy)"}
{"compound": "Cc1ccc(S(=O)(=O)Nc2ccccc2/C=N/CC(O)C/N=C/c2ccccc2NS(=O)(=O)c2ccc(C)cc2)cc1", "note": "[Decoy922]", "Type": "Inactive (Decoy)"}
{"compound": "COc1ccc(NC(=O)CSc2nnc(NC(=O)c3cc(OC)c(OC)c(OC)c3)s2)cc1OC", "note": "[Decoy923]", "Type": "Inactive (Decoy)"}
{"compound": "C=CCSc1ccccc1NC(=O)CSc1nnc(N/N=C/c2c(O)ccc3ccccc23)n1N", "note": "[Decoy924]", "Type": "Inactive (Decoy)"}
{"compound": "CCCCN/N=C(C(=O)OC)/C(C(=O)OC)=C(\\O)C(=O)Nc1nc2ccc([N+](=O)[O-])cc2s1", "note": "[Decoy925]", "Type": "Inactive (Decoy)"}
{"compound": "CO[C@@H]1[C@H](O)[C@H](OC[C@H]2O[C@@H](O[C@@H]3CC[C@]4(C)[C@H](CC[C@@H]5[C@@H]4CC[C@@]4(C)[C@@H](C6=CC(=O)OC6)CC[C@]54O)C3)[C@@H](O)[C@@H](O)[C@H]2O)O[C@@H](C)[C@@H]1O", "note": "[Decoy926]", "Type": "Inactive (Decoy)"}
{"compound": "COc1cc(-c2nnc(SCC(=O)N/N=C/c3cc(OC)c(OC(C)=O)c(OC)c3)n2-c2ccccc2)cc(OC)c1OC", "note": "[Decoy928]", "Type": "Inactive (Decoy)"}
{"compound": "C=CCO[C@@H]1[C@H]2OC(C)(C)O[C@H]2O[C@@H]1[C@H](O)Cn1c(=O)n(C[C@@H](O)[C@H]2O[C@@H]3OC(C)(C)O[C@@H]3[C@H]2OCC=C)c2cc(C)ccc21", "note": "[Decoy929]", "Type": "Inactive (Decoy)"}
{"compound": "CC1(C)CC[C@]2(C(=O)O[C@@H]3O[C@H](CO)[C@@H](O)[C@H](O)[C@H]3O)CC[C@]3(C)C(=CC[C@H]4[C@@]5(C)CC[C@H](O[C@H]6OC[C@@H](O)[C@@H](O)[C@@H]6O)[C@@](C)(CO)[C@H]5CC[C@]43C)[C@@H]2C1", "note": "[Decoy930]", "Type": "Inactive (Decoy)"}
{"compound": "CC(=O)N[C@H]1[C@@H](OC(=O)CCn2c(=O)oc3ccccc32)O[C@@H](COC(C)=O)[C@@H](OC(C)=O)[C@H]1OC(C)=O", "note": "[Decoy931]", "Type": "Inactive (Decoy)"}
{"compound": "Cc1cc(C)cc(NC(=O)COc2ccc(S(=O)(=O)Nc3ccc(C(=O)O)cc3)cc2[N+](=O)[O-])c1", "note": "[Decoy932]", "Type": "Inactive (Decoy)"}
{"compound": "CCOc1ccc(NC(=O)CSC2=C(C#N)[C@@H](c3ccco3)C(C(=O)Nc3cc(OC)ccc3OC)=C(C)N2)cc1", "note": "[Decoy933]", "Type": "Inactive (Decoy)"}
{"compound": "CCOC(=O)c1c(NC(=O)CCSc2nnc(COC)n2N)sc2c1CCCC2", "note": "[Decoy934]", "Type": "Inactive (Decoy)"}
{"compound": "C/C=C(/C[C@H](O)N(C=O)Cc1cnc(C)nc1N)SS/C(=C/C)C[C@@H](O)N(C=O)Cc1cnc(C)nc1N", "note": "[Decoy935]", "Type": "Inactive (Decoy)"}
{"compound": "COc1ccccc1OCCNC[C@@H](O)Cn1c2ccccc2c2c(OC[C@@H](O)CNCCOc3ccccc3OC)cccc21", "note": "[Decoy936]", "Type": "Inactive (Decoy)"}
{"compound": "CCN(CC)c1ccc(/C=N/Nc2nc(SCC(=O)n3nc(C)cc3C)n[nH]2)c(O)c1", "note": "[Decoy937]", "Type": "Inactive (Decoy)"}
{"compound": "CCOC(=O)CCCCC(=O)c1[nH]c(=O)[nH]c1CSc1nnc2c3ccccc3n(CCc3ccccc3)c2n1", "note": "[Decoy938]", "Type": "Inactive (Decoy)"}
{"compound": "Cc1ccc(S(=O)(=O)NCCc2nnc(NC(=O)CSCc3ccc([N+](=O)[O-])cc3)s2)cc1", "note": "[Decoy939]", "Type": "Inactive (Decoy)"}
